Results on seven molecules are retold here after ChEMBL document CHEMBL4177717, “7-Methylguanosine monophosphate analogues with 5'-(1,2,3-triazoyl) moiety: Synthesis and evaluation as the inhibitors of cNIIIB nucleotidase” (Bioorg Med Chem, 2018).

Active and inactive are the calls of the source. The calls are words filed in the database; no cut-off is given here.

Data set [1] is described as follows: Chemical stability of the compound in pH >8 solution at 100 uM after 24 hrs by RP-HPLC analysis. The class given is physicochemical.
The target of data set [2] is T1, 7-methylguanosine phosphate-specific 5'-nucleotidase (Homo sapiens) (UniProt Q969T7).
T1 sequence (whole entry): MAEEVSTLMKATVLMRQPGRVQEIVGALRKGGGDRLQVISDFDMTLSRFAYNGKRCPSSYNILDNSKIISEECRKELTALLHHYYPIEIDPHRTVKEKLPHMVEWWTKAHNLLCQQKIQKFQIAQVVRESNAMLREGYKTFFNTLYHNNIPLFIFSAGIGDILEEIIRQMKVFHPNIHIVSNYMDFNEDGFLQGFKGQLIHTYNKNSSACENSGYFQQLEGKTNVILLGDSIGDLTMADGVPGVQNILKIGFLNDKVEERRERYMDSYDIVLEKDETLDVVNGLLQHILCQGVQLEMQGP
The data set can be described thus: Activation of recombinant His6/SUMO-tagged human cN3B (1 to 300 residues) expressed in Escherichia coli BL21(DE3) RIL assessed as increase in dephosphorylation of m7GMP substrate at 100 uM after 45 mins by malachite green dye based assay.

Data set [3] has as its target T1, 7-methylguanosine phosphate-specific 5'-nucleotidase (Homo sapiens). The data set can be described thus: Inhibition of recombinant His6/SUMO-tagged human cN3B (1 to 300 residues) expressed in Escherichia coli BL21(DE3) RIL assessed as reduction in dephosphorylation of m7GMP substrate at 200 uM after 45 mins by HPLC method relative to control.
Data set [4] has the same target. Kind of data set: Substrate activity at recombinant His6/SUMO-tagged human cN3B (1 to 300 residues) expressed in Escherichia coli BL21(DE3) RIL assessed as compound dephosphorylation at 100 uM up to 150 mins by HPLC method.
The nature of data set [5]: Chemical stability of the compound in pH 6 to 8 PBS at 100 uM after 24 hrs by RP-HPLC analysis. The conditions noted are these: buffer, pH 6, 24 h. The class given is physicochemical.
Data set [6] is filed under the species Homo sapiens. Kind of data set: Selectivity ratio of IC50 for human DCPS to IC50 for recombinant His6/SUMO-tagged human cN3B (1 to 300 residues) expressed in Escherichia coli BL21(DE3) RIL.
In data set [7] the target is T1, 7-methylguanosine phosphate-specific 5'-nucleotidase (Homo sapiens). Kind of data set: Inhibition of recombinant His6/SUMO-tagged human cN3B (1 to 300 residues) expressed in Escherichia coli BL21(DE3) RIL assessed as reduction in conversion of m7GMP to m7Guo at 200 uM after 45 mins in presence of human DCPS by HPLC method.
Data set [8] has the same target. Kind of data set: Inhibition of recombinant His6/SUMO-tagged human cN3B (1 to 300 residues) expressed in Escherichia coli BL21(DE3) RIL assessed as reduction in dephosphorylation of m7GMP substrate at 200 uM after 45 mins by malachite green dye based assay relative to control.
The target of data set [9] is Eukaryotic translation initiation factor 4E (Homo sapiens, UniProt P06730). The data set can be described thus: Inhibition of eIF4E (unknown origin).
Data set [10] addresses T2, 7-methylguanosine phosphate-specific 5'-nucleotidase (Homo sapiens, UniProt Q969T7).
T2 sequence (Q969T7 whole entry): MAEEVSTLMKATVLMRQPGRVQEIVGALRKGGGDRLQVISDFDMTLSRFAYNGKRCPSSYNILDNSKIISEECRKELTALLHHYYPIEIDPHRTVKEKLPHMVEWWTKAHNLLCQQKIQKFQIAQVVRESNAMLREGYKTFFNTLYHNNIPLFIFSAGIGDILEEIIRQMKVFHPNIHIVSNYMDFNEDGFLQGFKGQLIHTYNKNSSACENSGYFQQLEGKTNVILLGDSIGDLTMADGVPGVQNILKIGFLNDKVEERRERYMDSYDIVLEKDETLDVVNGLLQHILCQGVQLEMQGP
The data set can be described thus: Inhibition of recombinant His6/SUMO-tagged human cN3B (1 to 300 residues) expressed in Escherichia coli BL21(DE3) RIL assessed as reduction in dephosphorylation of m7GMP substrate after 45 mins by malachite green dye based assay.

Data set [11] has as its target T3, m7GpppX diphosphatase (Homo sapiens) (UniProt Q96C86).
T3 sequence (whole entry): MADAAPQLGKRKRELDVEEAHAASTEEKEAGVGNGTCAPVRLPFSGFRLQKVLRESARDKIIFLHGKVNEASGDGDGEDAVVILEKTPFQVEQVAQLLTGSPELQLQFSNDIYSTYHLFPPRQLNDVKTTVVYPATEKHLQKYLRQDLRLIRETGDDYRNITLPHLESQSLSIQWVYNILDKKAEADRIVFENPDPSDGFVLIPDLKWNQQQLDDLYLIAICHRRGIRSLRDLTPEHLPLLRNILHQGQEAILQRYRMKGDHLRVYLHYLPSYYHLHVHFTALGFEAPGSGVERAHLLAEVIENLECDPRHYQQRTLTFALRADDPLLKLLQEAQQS
The data set can be described thus: Inhibition of human DCPS using m7GMPF assessed as reduction in conversion of m7GpppG to GDP at 200 uM after 45 mins in presence of human cN3B by HPLC method.

Data set [12] concerns the target Eukaryotic translation initiation factor 4E (Mus musculus, UniProt P63073). The data set can be described thus: Inhibition of fluorescein-labeled m7GDPC4H5 binding to mouse eIF4E (28 to 217 residues) by MST method. The conditions noted are these: read-out: Kd(app).
For data set [13], the target named is T4, m7GpppX diphosphatase (Homo sapiens, UniProt Q96C86).
T4 sequence (Q96C86 whole entry): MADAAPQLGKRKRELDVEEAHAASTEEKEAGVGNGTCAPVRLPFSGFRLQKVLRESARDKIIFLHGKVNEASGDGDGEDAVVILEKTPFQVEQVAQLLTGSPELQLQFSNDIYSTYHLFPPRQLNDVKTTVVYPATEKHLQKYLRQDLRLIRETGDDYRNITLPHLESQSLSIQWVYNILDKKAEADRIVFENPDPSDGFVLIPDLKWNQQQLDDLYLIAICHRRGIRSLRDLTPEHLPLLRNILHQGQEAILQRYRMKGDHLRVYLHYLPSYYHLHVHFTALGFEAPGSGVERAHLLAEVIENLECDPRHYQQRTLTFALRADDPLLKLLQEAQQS
Kind of data set: Inhibition of human DCPS using m7GMPF as substrate after 30 mins by nucleoside 5'-fluorophosphate probe based HTS assay.

In data set [14] the target is T2, 7-methylguanosine phosphate-specific 5'-nucleotidase. The data set can be described thus: Inhibition of recombinant His6/SUMO-tagged human cN3B (1 to 300 residues) expressed in Escherichia coli BL21(DE3) RIL assessed as reduction in dephosphorylation of m7GMP substrate after 45 mins by HPLC method.
Data set [15] addresses T1, 7-methylguanosine phosphate-specific 5'-nucleotidase (Homo sapiens). The data set can be described thus: Activation of recombinant His6/SUMO-tagged human cN3B (1 to 300 residues) expressed in Escherichia coli BL21(DE3) RIL assessed as increase in dephosphorylation of m7GMP substrate at 200 uM after 45 mins by HPLC method.
Substrate in data set [16]: C[n+]1cn([C@@H]2O[C@H](Cn3cc(OCP(=O)([O-])O)nn3)[C@@H](O)[C@H]2O)c2nc(N)[nH]c(=O)c21
Kind of data set: Substrate activity at recombinant His6/SUMO-tagged human cN3B (1 to 300 residues) expressed in Escherichia coli BL21(DE3) RIL assessed as compound dephosphorylation up to 30 mins by malachite green dye based assay.

Substrate in data set [17]: C[n+]1cn([C@@H]2O[C@H](Cn3cc(OCP(=O)([O-])O)nn3)[C@@H](O)[C@H]2O)c2nc(N)[nH]c(=O)c21
Kind of data set: Substrate activity at recombinant His6/SUMO-tagged human cN3B (1 to 300 residues) expressed in Escherichia coli BL21(DE3) RIL assessed as compound dephosphorylation by measuring ratio of Kcat to Km up to 30 mins by malachite green dye based assay.

Substrate in data set [18]: C[n+]1cn([C@@H]2O[C@H](Cn3cc(OCP(=O)([O-])O)nn3)[C@@H](O)[C@H]2O)c2nc(N)[nH]c(=O)c21
The data set can be described thus: Substrate activity at recombinant His6/SUMO-tagged human cN3B (1 to 300 residues) expressed in Escherichia coli BL21(DE3) RIL assessed as compound dephosphorylation by Vmax up to 30 mins by malachite green dye based assay.

Substrate in data set [19]: C[n+]1cn([C@@H]2O[C@H](Cn3cc(OCP(=O)([O-])O)nn3)[C@@H](O)[C@H]2O)c2nc(N)[nH]c(=O)c21
Kind of data set: Substrate activity at recombinant His6/SUMO-tagged human cN3B (1 to 300 residues) expressed in Escherichia coli BL21(DE3) RIL assessed as compound dephosphorylation by Kcat up to 30 mins by malachite green dye based assay.

Eukaryotic translation initiation factor 4E (Mus musculus, UniProt P63073), sequence (P63073 whole entry, the tested form may be a part): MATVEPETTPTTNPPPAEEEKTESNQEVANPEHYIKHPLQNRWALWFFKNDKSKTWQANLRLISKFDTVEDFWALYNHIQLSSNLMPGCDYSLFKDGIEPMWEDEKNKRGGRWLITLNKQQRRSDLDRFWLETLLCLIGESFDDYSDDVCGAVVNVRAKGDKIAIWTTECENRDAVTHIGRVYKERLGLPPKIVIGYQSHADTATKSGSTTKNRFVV
Eukaryotic translation initiation factor 4E (Homo sapiens, UniProt P06730), sequence (P06730 whole entry): as the sequence (P63073 whole entry, the tested form may be a part) above, with T12P, P16T, A17T, D174E counted along it

Take `C[n+]1cn([C@@H]2O[C@H](Cn3cc(OCP(=O)([O-])O)nn3)[C@@H](O)[C@H]2O)c2nc(N)[nH]c(=O)c21`: the values for the Stability result in [1] and in data set [5] were “Unstable” and “Stable”, respectively. The result in data set [2] and in data set [4] was Active. For the same molecule, in data set [3], the inhibition (commonly the change of the read-out against control, counted positive when it falls) is “inactive”.

On to `C[n+]1cn([C@@H]2O[C@H](Cn3cc(P(=O)([O-])O)nn3)[C@@H](O)[C@H]2O)c2nc(N)[nH]c(=O)c21`, for which the Ratio IC50 in data set [6] worked out at 3. Besides, in data set [7], the inhibition entry was “Active”. Further, the results for the inhibition in data set [8] and in data set [3] were 51% and 67%, respectively. Besides, the figures for the Stability result in data set [1] and in data set [5] were “Unstable” and “Stable”, respectively. Moreover, in [9], the affinity corresponds to a Ki of 382 µM. Also, the IC50 (as a rule, the concentration that inhibits the measured activity by half) in data set [10] was 128 µM; in data set [13], 244 µM; in [14], 87.8 µM. Further, the inhibition result in data set [11] was “inactive”. Also, in data set [4], the result was inactive. Further, the Kd in data set [12] was found to be 5.9 µM.

`C[n+]1cn([C@@H]2O[C@H](Cn3cc(CP(=O)([O-])O)nn3)[C@@H](O)[C@H]2O)c2nc(N)[nH]c(=O)c21`: the inhibition result in data set [8] and in data set [3] was “inactive” in each case. The Stability entry was “Unstable” in data set [1] and “Stable” in [5]. Besides, the result in [15], in data set [2] and in data set [4] was inactive.

Turning to `C[n+]1cn([C@@H]2O[C@H](COP(=O)([O-])OP(=O)(O)O)[C@@H](O)[C@H]2O)c2nc(N)[nH]c(=O)c21`, the IC50 in data set [13] turned out to be 1.8 µM.

For the molecule `C[n+]1cn([C@@H]2O[C@H](Cn3cc(CCP(=O)([O-])O)nn3)[C@@H](O)[C@H]2O)c2nc(N)[nH]c(=O)c21`, the inhibition entry in data set [8] and in data set [3] was “inactive” throughout. The Stability entry in data set [1] is “Unstable”; in data set [5], “Stable”. The outcome in data set [15], in data set [2] and in [4] was inactive.

On to `C[n+]1cn([C@@H]2O[C@H](COP(=O)([O-])O)[C@@H](O)[C@H]2O)c2nc(N)[nH]c(=O)c21`, for which the result in [4] was Active. The same molecule showed an IC50 in data set [13] of 42.2 µM.

B1: 7-methylguanosine phosphate-specific 5'-nucleotidase (Homo sapiens), Q969T7 (protein)
chain: MAEEVSTLMKATVLMRQPGRVQEIVGALRKGGGDRLQVISDFDMTLSRFAYNGKRCPSSYNILDNSKIISEECRKELTALLHHYYPIEIDPHRTVKEKLPHMVEWWTKAHNLLCQQKIQKFQIAQVVRESNAMLREGYKTFFNTLYHNNIPLFIFSAGIGDILEEIIRQMKVFHPNIHIVSNYMDFNEDGFLQGFKGQLIHTYNKNSSACENSGYFQQLEGKTNVILLGDSIGDLTMADGVPGVQNILKIGFLNDKVEERRERYMDSYDIVLEKDETLDVVNGLLQHILCQGVQLEMQGP
Take B1: in data set [16], the Km (in general, the substrate concentration at which the rate is half of its maximum) came to 82 µM. Also, the kcat/Km (as a rule, the turnover number divided by the Michaelis constant) in data set [17] worked out at 11000 M⁻¹ s⁻¹. The Vmax (commonly the top rate of the reaction or transport when substrate is in excess) in data set [18] stood at 1.6 µmol/min/mg. Moreover, in data set [19], the kcat (as a rule, the maximal rate divided by the concentration of active sites) turned out to be 1.16 s⁻¹.
